Drawing on patent publication US8080657B2, “Compounds of reverse turn mimetics and the use thereof” (Choongwae Pharma Corporation, priority 2008, dated 2011), this text covers IC50 for 46 compounds.

A word on the IC50: it is the concentration that gives 50% inhibition.

This assay deals with T1, cDNA-expressed human hepatic CYP3A4 (Homo sapiens, UniProt P08684).
T1 construct: purchased BD Gentest 456202
Briefly: P450 CYP3A4 inhibitory activity screening (BFC substrate, fluorescence). Format: biochemical. On the procedure: P450 CYP3A4 Inhibitory Activity Screening
Assay was conducted in a 200 μL volume in 96-well microtiter plates using cDNA-expressed human hepatic CYP3A4 (supersome, BD Gentest™ #456202). 7-Benzyloxy-4-trifluoromethyl-coumarin (BFC) was used as a substrate for CYP3A4. Test articles and substrate BFC were dissolved in 100% acetonitrile. The final volume of acetonitrile in the incubation mixture was less than 1% (volume/volume). Potassium phosphate buffer (pH 7.4, final concentration 0.1 M), MgCl2 (final concentration 8.3 mM), EDTA (final concentration 1.67 mM), a test article stock solution, a CYP3A4 supersome and NADPH (final concentration 0.25 mM) were added to each well. The reaction was initiated by the addition of substrate (BFC, final concentration 30 µM) after a 10 min pre-incubation at 37° C. After 10 min incubation at 37° C., the reaction was terminated by the addition of 75 μL of acetonitrile:0.5 M Tris-base=4:1 (volume/volume). Thereafter, Fluorescent signal was measured using a fluorometer. BFC metabolite, 7-hydroxy-4-trifluoromethyl-coumarin, was measured using an excitation wavelength of 409 nm and an emission wavelength of 530 nm.

[1] abbreviates: P450 CYP3A4 inhibitory activity screening, fluorescent assay, read-out: CYP3A4 inhibition, IC50 (μM) fluorescent assay.
Where [2] appears, read: human CYP3A4 supersome, substrate BFC, 10 min incubation at 37° C., read-out: IC50 values of Compounds against CYP3A4 activity.

Read-outs that look alike come from different tables or passages of the source.

T1 sequence (P08684 whole entry): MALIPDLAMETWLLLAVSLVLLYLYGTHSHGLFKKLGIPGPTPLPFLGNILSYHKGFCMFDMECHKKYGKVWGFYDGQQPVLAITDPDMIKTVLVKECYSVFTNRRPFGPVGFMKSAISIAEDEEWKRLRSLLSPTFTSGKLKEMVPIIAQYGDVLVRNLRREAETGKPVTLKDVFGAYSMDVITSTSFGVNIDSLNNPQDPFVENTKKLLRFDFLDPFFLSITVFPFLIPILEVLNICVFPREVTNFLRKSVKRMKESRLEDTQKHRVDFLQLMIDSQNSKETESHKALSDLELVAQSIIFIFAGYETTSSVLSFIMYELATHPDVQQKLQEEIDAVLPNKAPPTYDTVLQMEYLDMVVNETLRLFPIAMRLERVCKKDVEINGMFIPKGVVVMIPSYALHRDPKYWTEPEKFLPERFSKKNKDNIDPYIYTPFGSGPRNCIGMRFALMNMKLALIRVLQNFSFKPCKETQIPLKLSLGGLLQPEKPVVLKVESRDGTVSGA

In the case of `C=CCN1CC(=O)N2[C@@H](Cc3ccc(O)cc3)C(=O)N(Cc3ccc(CP(=O)(O)O)cc3)C[C@@H]2N1C(=O)NCc1ccccc1` [compound 57], the IC50 under setting [1] is over 50 µM.

Turning to `C=CCN1CC(=O)N2[C@@H](Cc3ccc(O)cc3)C(=O)N(Cc3cccc(-c4cccc(C(=O)O)c4)c3)C[C@@H]2N1C(=O)NCc1ccccc1` [compound 24], the IC50 under setting [1] worked out at 12.9 µM.

Turning to `C=CCN1CC(=O)N2[C@@H](Cc3ccc(O)cc3)C(=O)N(Cc3cccc(C(C)=O)c3)C[C@@H]2N1C(=O)NCc1ccccc1` [compound 15], under setting [1], the IC50 stood at 8.79 µM.

In the case of `C=CCN1CC(=O)N2[C@@H](Cc3ccc(O)cc3)C(=O)N(Cc3cccc(-c4ccc(S(C)(=O)=O)cc4)n3)C[C@@H]2N1C(=O)NCc1ccccc1` [compound 6], under setting [1], the IC50 is 6.78 µM.

As for `C=CCN1CC(=O)N2[C@@H](Cc3ccc(O)cc3)C(=O)N(Cc3cccc4c3ncn4CC(N)=O)C[C@@H]2N1C(=O)NCc1ccccc1` [compound 58], the IC50 under setting [1] was over 50 µM.

As to `C=CCN1CC(=O)N2[C@@H](Cc3ccc(O)cc3)C(=O)N(Cc3cccc(C(=O)N4CCOCC4)c3)C[C@@H]2N1C(=O)NCc1ccccc1` [compound 20], the IC50 under setting [1] is 10.1 µM.

On to `C=CCN1CC(=O)N2[C@@H](Cc3ccc(O)cc3)C(=O)N(Cc3cccc(N(C)C=O)c3)C[C@@H]2N1C(=O)NCc1ccccc1` [compound 2], for which, under setting [1], the concentration for half-maximal inhibition (IC50) stood at 5.23 µM.

Turning to `C=CCN1CC(=O)N2[C@@H](Cc3ccc(O)cc3)C(=O)N(Cc3cccc(C(=O)N(C)C)n3)C[C@@H]2N1C(=O)NCc1ccccc1` [compound 39], the IC50 under setting [1] was determined as 35.3 µM.

`C=CCN1CC(=O)N2[C@@H](Cc3ccc(OS(N)(=O)=O)cc3)C(=O)N(Cc3cccc4c3ncn4C)C[C@@H]2N1C(=O)NCc1ccccn1` [compound 23]: the IC50 under setting [1] amounted to 12 µM.

Consider `C=CCN1CC(=O)N2[C@@H](Cc3ccc(O)cc3)C(=O)N(Cc3cccc(C(=O)O)c3)C[C@@H]2N1C(=O)NCc1ccccc1` [compound 54], for which the concentration for half-maximal inhibition (IC50) under setting [1] was over 50 µM.

As for `C=CCN1CC(=O)N2[C@@H](Cc3ccc(O)cc3)C(=O)N(Cc3cccc(C(=O)OCC)n3)C[C@@H]2N1C(=O)NCc1ccccc1` [compound 31], under setting [1], the IC50 was 18.9 µM.

Consider `C=CCN1CC(=O)N2[C@@H](Cc3ccc(O)cc3)C(=O)N(Cc3cccc(NC(C)=O)c3)C[C@@H]2N1C(=O)NCc1ccccc1` [compound 28], for which the IC50 under setting [1] was 17.9 µM.

`C=CCN1CC(=O)N2[C@@H](Cc3ccc(O)cc3)C(=O)N(Cc3cccc(C(=O)NCCOC)n3)C[C@@H]2N1C(=O)NCc1ccccc1` [compound 32]: under setting [1], the IC50 was 19.9 µM.

For the compound `C=CCN1CC(=O)N2[C@@H](Cc3ccc(O)cc3)C(=O)N(Cc3cccc4c3ncn4CCC)C[C@@H]2N1C(=O)NCc1ccccc1` [compound 14], the IC50 under setting [1] turned out to be 8.42 µM.

As for `C=CCN1CC(=O)N2[C@@H](Cc3ccc(OS(N)(=O)=O)cc3)C(=O)N(Cc3cccc(C(=O)NC)n3)C[C@@H]2N1C(=O)NCc1ccccc1` [compound 35], the IC50 under setting [1] stood at 26.4 µM.

Consider `C=CCN1CC(=O)N2[C@@H](Cc3ccc(O)cc3)C(=O)N(Cc3cccc(C(=O)NOC)c3)C[C@@H]2N1C(=O)NCc1ccccc1` [compound 41], for which, under setting [1], the IC50 turned out to be 41.4 µM.

As for `C=CCN1CC(=O)N2[C@@H](Cc3ccc(O)cc3)C(=O)N(Cc3ccccc3-n3cnnn3)C[C@@H]2N1C(=O)NCc1ccccc1` [compound 26], the IC50 under setting [1] is 13.5 µM.

`C=CCN1CC(=O)N2[C@@H](Cc3ccc(O)cc3)C(=O)N(Cc3cccc(N(C)C(=O)OC)c3)C[C@@H]2N1C(=O)NCc1ccccc1` [compound 21]: the IC50 under setting [1] was 10.2 µM.

With `C=CCN1CC(=O)N2[C@@H](Cc3ccc(O)cc3)C(=O)N(Cc3cccc4c3nc(C(F)(F)F)n4C)C[C@@H]2N1C(=O)NCc1ccccc1` [E], the IC50 under setting [2] is over 10 µM.

Turning to `C=CCN1CC(=O)N2[C@@H](Cc3ccc(O)cc3)C(=O)N(Cc3cccc(C(=O)NC)n3)C[C@@H]2N1C(=O)NCc1ccccc1` [compound 25], the IC50 under setting [1] turned out to be 13.1 µM.

Turning to `C=CCN1CC(=O)N2[C@@H](Cc3ccc(O)cc3)C(=O)N(Cc3cccc(N4CCCC4=O)c3)C[C@@H]2N1C(=O)NCc1ccccn1` [compound 46], the concentration for half-maximal inhibition (IC50) under setting [1] was over 50 µM.

For the compound `C=CCN1CC(=O)N2[C@@H](Cc3ccc(O)cc3)C(=O)N(Cc3ccnc(C(N)=O)c3)C[C@@H]2N1C(=O)NCc1ccccc1` [compound 44], the 50% inhibitory concentration (IC50) under setting [1] was found to be 45.1 µM.

As to `C=CCN1CC(=O)N2[C@@H](Cc3ccc(O)cc3)C(=O)N(Cc3cccc(NC(=O)OC)c3)C[C@@H]2N1C(=O)NCc1ccccc1` [compound 33], the half-inhibitory concentration (IC50) under setting [1] worked out at 24.2 µM.

Take `C=CCN1CC(=O)N2[C@@H](Cc3ccc(O)cc3)C(=O)N(Cc3cccc(NS(C)(=O)=O)c3)C[C@@H]2N1C(=O)NCc1ccccc1` [compound 18]: under setting [1], the IC50 came out at 9.16 µM.

With `C=CCN1CC(=O)N2[C@@H](Cc3ccc(O)cc3)C(=O)N(Cc3ccccc3S(C)(=O)=O)C[C@@H]2N1C(=O)NCc1ccccn1` [compound 34], the IC50 under setting [1] was 24.5 µM.

As for `C=CCN1CC(=O)N2[C@@H](Cc3ccc(O)cc3)C(=O)N(Cc3cccc(C(=O)NCC4CCCO4)c3)C[C@@H]2N1C(=O)NCc1ccccc1` (stereo partly shown) [compound 17], the IC50 under setting [1] amounted to 9.02 µM.

On to `C=CCN1CC(=O)N2[C@@H](Cc3ccc(O)cc3)C(=O)N(Cc3cccc4c3ncn4C)C[C@@H]2N1C(=O)NCc1ccccn1` [compound 47], for which the IC50 under setting [1] is over 50 µM.

As to `C=CCN1CC(=O)N2[C@@H](Cc3ccc(O)cc3)C(=O)N(Cc3cccc(C(=O)NC)n3)C[C@@H]2N1C(=O)NCc1ccccc1` [A], the IC50 under setting [2] amounted to 13.1 µM.

Consider `C=CCN1CC(=O)N2[C@@H](Cc3ccccc3)C(=O)N(Cc3cccc(C(=O)O)c3)C[C@@H]2N1C(=O)NCc1ccccc1` [compound 48], for which the IC50 under setting [1] was over 50 µM.

Consider `C=CCN1CC(=O)N2[C@@H](Cc3ccc(O)cc3)C(=O)N(Cc3cccc(C(=O)OC)c3)C[C@@H]2N1C(=O)NCc1ccccc1` [compound 11], for which the IC50 under setting [1] came out at 7.58 µM.

Take `C=CCN1CC(=O)N2[C@@H](Cc3ccc(O)cc3)C(=O)N(Cc3cccc(NC(N)=O)c3)C[C@@H]2N1C(=O)NCc1ccccc1` [compound 37]: under setting [1], the IC50 is 34.3 µM.

Regarding `C=CCN1CC(=O)N2[C@@H](Cc3ccc(OS(N)(=O)=O)cc3)C(=O)N(Cc3cccc(C(=O)O)c3)C[C@@H]2N1C(=O)NCc1ccccc1` [compound 55], the IC50 under setting [1] was over 50 µM.

Consider `C=CCN1CC(=O)N2[C@@H](Cc3ccc(OS(N)(=O)=O)cc3)C(=O)N(Cc3cccc(N4CCCC4=O)c3)C[C@@H]2N1C(=O)NCc1ccccc1` [compound 16], for which the IC50 under setting [1] was 9 µM.

Consider `C=CCN1CC(=O)N2[C@@H](Cc3ccc(O)cc3)C(=O)N(Cc3cccc(C(=O)N[C@@H](CCC(=O)O)C(=O)O)c3)C[C@@H]2N1C(=O)NCc1ccccc1` [compound 51], for which the IC50 under setting [1] is over 50 µM.

As to `C#CCN1C[C@H]2N(C(=O)CN(CC=C)N2C(=O)NCc2ccccc2)[C@@H](Cc2ccc(O)cc2)C1=O` [compound 29], the IC50 under setting [1] stood at 18.1 µM.

`C=CCN1CC(=O)N2[C@@H](Cc3ccc(O)cc3)C(=O)N(Cc3cccc(C(=O)NC)c3)C[C@@H]2N1C(=O)NCc1ccccc1` [compound 13]: the IC50 under setting [1] is 8 µM.

`C=CCN1CC(=O)N2[C@@H](Cc3ccc(O)cc3)C(=O)N(Cc3cccc(C(=O)O)n3)C[C@@H]2N1C(=O)NCc1ccccc1` [compound 56]: under setting [1], the IC50 is over 50 µM.

Take `C=CCN1CC(=O)N2[C@@H](Cc3ccc(O)cc3)C(=O)N(Cc3cccc(NC(=O)NC(N)=O)c3)C[C@@H]2N1C(=O)NCc1ccccc1` [compound 27]: under setting [1], the IC50 was 16.8 µM.

With `C=CCN1CC(=O)N2[C@@H](Cc3ccc(O)cc3)C(=O)N(Cc3cccc(C(=O)NCC4CC4)c3)C[C@@H]2N1C(=O)NCc1ccccc1` [compound 12], the IC50 under setting [1] was found to be 7.65 µM.

Regarding `C=CCN1CC(=O)N2[C@@H](Cc3ccc(O)cc3)C(=O)N(Cc3cccnc3N3CCC(N4CCCC4)CC3)C[C@@H]2N1C(=O)NCc1ccccc1` [compound 7], under setting [1], the IC50 amounted to 6.84 µM.

In the case of `O=C(O)c1cccc(CN2C[C@H]3N(C(=O)CN(Cc4ccccc4)N3C(=O)NCc3ccccc3)[C@@H](Cc3ccc(O)cc3)C2=O)c1` [compound 49], the IC50 under setting [1] was over 50 µM.

As to `C=CCN1CC(=O)N2[C@@H](Cc3ccc(O)cc3)C(=O)N(Cc3cccc4c(=O)ccoc34)C[C@@H]2N1C(=O)NCc1ccccc1` [compound 9], the half-inhibitory concentration (IC50) under setting [1] amounted to 6.95 µM.

On to `C=CCN1CC(=O)N2C(Cc3ccc(O)cc3)C(=O)N(Cc3cccc4c(-c5ccccc5)cn(S(=O)(=O)c5ccccc5)c34)C[C@@H]2N1C(=O)NCc1ccccc1` (stereo partly shown) [compound 59], for which the half-maximal inhibitory concentration (IC50) under setting [1] amounted to 2.63 µM.

As for `C=CCN1CC(=O)N2[C@@H](Cc3ccc(O)cc3)C(=O)N(Cc3cccc(C(N)=O)c3)C[C@@H]2N1C(=O)NCc1ccccc1` [compound 53], the IC50 under setting [1] is over 50 µM.

For `C=CCN1CC(=O)N2[C@@H](Cc3ccc(O)cc3)C(=O)N(Cc3cccc4c(C(=O)C5CC5)c[nH]c34)C[C@@H]2N1C(=O)NCc1ccccc1` [compound 61], the 50% inhibitory concentration (IC50) under setting [1] is 5.92 µM.

Turning to `C=CCN1CC(=O)N2[C@@H](Cc3ccc(O)cc3)C(=O)N(Cc3cccc(-c4ccc[nH]c4=O)c3)C[C@@H]2N1C(=O)NCc1ccccc1` [compound 10], the IC50 under setting [1] came to 7.02 µM.
